Test results published in patent US20230303549A1, “SUBSTITUTED HETEROARYLOXYPYRIDINES, THE SALTS THEREOF AND THEIR USE AS HERBICIDAL AGENTS” (Bayer Aktiengesellschaft, priority 2020, published 2023).

Key:
Assay type in all cases: in vivo
[1] = tested on: Polygonum convolvulus (POLCO); experiment: Post-emergence herbicidal efficacy at 80 g/ha, greenhouse pot test; conditions: visual rating vs untreated control after about 3 weeks
Outline: (§1)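 Visual rating of activity versus untreated plants after about 3 greenhouse weeks, 0% meaning control-like and 100% meaning dead. Plants in sandy loam were sprayed at one-leaf stage (2–3 weeks post-sowing) with WP/EC compound suspensions or emulsions, 0.5% additive, 600 l/ha water.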

[2] = tested on: Alopecurus myosuroides (ALOMY); experiment: as above; conditions: visual rating vs untreated control after about 3 weeks
Outline: as §1

Veronica persica (VERPE) [3] = experiment: as above; conditions: visual rating vs untreated control after about 3 weeks
Outline: as §1

Viola tricolor (VIOTR) [4] = experiment: as above; conditions: visual rating vs untreated control after about 3 weeks
Outline: as §1

[5] = tested on: Amaranthus retroflexus (AMARE); experiment: as above; conditions: visual rating vs untreated control after about 3 weeks
Outline: as §1

[6] = tested on: Matricaria inodora (MATIN); experiment: Pre-emergence herbicide efficacy at 80 g/ha, greenhouse pot test; conditions: visual scoring vs untreated control after about 3 weeks
Outline: (§2)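 Seeds were sown in pots and covered with soil, then the compound (WP or EC formulation) was sprayed onto the soil surface as an aqueous suspension or emulsion with 0.5% additive. Pots were kept in a greenhouse, and after about 3 weeks activity was scored visually versus untreated controls (100% = plants dead, 0% = like control).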

[7] = tested on: Polygonum convolvulus (POLCO); experiment: as above; conditions: visual scoring vs untreated control after about 3 weeks
Outline: as §2

[8] = tested on: Abutilon theophrasti (ABUTH); experiment: as above; conditions: visual scoring vs untreated control after about 3 weeks
Outline: as §2

[9] = tested on: Alopecurus myosuroides (ALOMY); experiment: as above; conditions: visual scoring vs untreated control after about 3 weeks
Outline: as §2

Avena fatua (AVEFA) = experiment: as above; conditions: visual scoring vs untreated control after about 3 weeks
Outline: as §2

Setaria viridis (SETVI) [10] = experiment: as above; conditions: visual scoring vs untreated control after about 3 weeks
Outline: as §2

[11] = tested on: Digitaria sanguinalis (DIGSA); experiment: as above; conditions: visual scoring vs untreated control after about 3 weeks
Outline: as §2

Ipomoea purpurea (PHBPU) = experiment: as above; conditions: visual scoring vs untreated control after about 3 weeks
Outline: as §2

Veronica persica (VERPE) [12] = experiment: as above; conditions: visual scoring vs untreated control after about 3 weeks
Outline: as §2

Viola tricolor (VIOTR) [13] = experiment: as above; conditions: visual scoring vs untreated control after about 3 weeks
Outline: as §2

[14] = tested on: Amaranthus retroflexus (AMARE); experiment: as above; conditions: visual scoring vs untreated control after about 3 weeks
Outline: as §2

Lolium rigidum (LOLRI) = experiment: Post-emergence herbicidal efficacy at 320 g/ha, greenhouse pot test; conditions: visual rating vs untreated control after about 3 weeks
Outline: (§3)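 Scoring was visual, about 3 weeks post-treatment, versus untreated plants on a 0–100% scale (100% = dead). Foliar application to one-leaf-stage greenhouse weeds in sandy loam, compounds as aqueous WP/EC suspension or emulsion with 0.5% additive, 600 L/ha spray volume.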

[15] = tested on: Abutilon theophrasti (ABUTH); experiment: as above; conditions: visual rating vs untreated control after about 3 weeks
Outline: as §3

Stellaria media (STEME) [16] = experiment: as above; conditions: visual rating vs untreated control after about 3 weeks
Outline: as §3

Poa annua (POAAN) [17] = experiment: as above; conditions: visual rating vs untreated control after about 3 weeks
Outline: as §3

Setaria viridis (SETVI) [18] = experiment: as above; conditions: visual rating vs untreated control after about 3 weeks
Outline: as §3

Veronica persica (VERPE) [19] = experiment: as above; conditions: 320 g/ha, visual rating vs untreated control after about 3 weeks
Outline: as §3

[20] = tested on: Amaranthus retroflexus (AMARE); experiment: as above; conditions: visual rating vs untreated control after about 3 weeks
Outline: as §3

Bassia scoparia (KCHSC) [21] = experiment: as above; conditions: visual rating vs untreated control after about 3 weeks
Outline: as §3

[22] = tested on: Matricaria inodora (MATIN); experiment: Pre-emergence herbicide efficacy at 320 g/ha, greenhouse pot test; conditions: visual scoring vs untreated control after about 3 weeks
Outline: (§4)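 Activity is a visual percentage score taken about 3 weeks after treatment against untreated plants, where 100% means plants died and 0% matches controls. Compounds, formulated as wettable powder or emulsion concentrate with 0.5% additive, were applied in 600 L/ha water onto soil covering freshly sown seeds.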

[23] = tested on: Abutilon theophrasti (ABUTH); experiment: as above; conditions: visual scoring vs untreated control after about 3 weeks
Outline: as §4

[24] = tested on: Alopecurus myosuroides (ALOMY); experiment: as above; conditions: visual scoring vs untreated control after about 3 weeks
Outline: as §4

Stellaria media (STEME) [25] = experiment: as above; conditions: visual scoring vs untreated control after about 3 weeks
Outline: as §4

Poa annua (POAAN) [26] = experiment: as above; conditions: visual scoring vs untreated control after about 3 weeks
Outline: as §4

Setaria viridis (SETVI) [27] = experiment: as above; conditions: visual scoring vs untreated control after about 3 weeks
Outline: as §4

[28] = tested on: Echinochloa crus-galli (ECHCG); experiment: as above; conditions: visual scoring vs untreated control after about 3 weeks
Outline: as §4

Veronica persica (VERPE) [29] = experiment: as above; conditions: visual scoring vs untreated control after about 3 weeks
Outline: as §4

[30] = tested on: Amaranthus retroflexus (AMARE); experiment: as above; conditions: visual scoring vs untreated control after about 3 weeks
Outline: as §4

Bassia scoparia (KCHSC) [31] = experiment: as above; conditions: dosage 1280 g/ha in Table C6, visual scoring after about 3 weeks
Outline: as §4

Cc1cc(C)c(-c2cc(C(F)F)no2)c(Oc2ncc(F)cn2)n1 [Example I-4]
Post-emergence efficacy against Polygonum convolvulus (POLCO) [1]: 90% | Post-emergence efficacy against Alopecurus myosuroides (ALOMY) [2]: 90% | Post-emergence efficacy against Veronica persica (VERPE) (Veronica persica (VERPE) [3]): 90% | Post-emergence efficacy against Viola tricolor (VIOTR) (Viola tricolor (VIOTR) [4]): 80% | Post-emergence efficacy against Amaranthus retroflexus (AMARE) [5]: 100% | Pre-emergence efficacy against Matricaria inodora (MATIN) [6]: 90% | Pre-emergence efficacy against Polygonum convolvulus (POLCO) [7]: 90% | Pre-emergence efficacy against Abutilon theophrasti (ABUTH) [8]: 100% | Pre-emergence efficacy against Alopecurus myosuroides (ALOMY) [9]: 90% | Pre-emergence efficacy against Avena fatua (AVEFA) (Avena fatua (AVEFA)): 80% | Pre-emergence efficacy against Setaria viridis (SETVI) (Setaria viridis (SETVI) [10]): 100% | Pre-emergence efficacy against Digitaria sanguinalis (DIGSA) [11]: 100% | Pre-emergence efficacy against Ipomoea purpurea (PHBPU) (Ipomoea purpurea (PHBPU)): 80% | Pre-emergence efficacy against Veronica persica (VERPE) (Veronica persica (VERPE) [12]): 100% | Pre-emergence efficacy against Viola tricolor (VIOTR) (Viola tricolor (VIOTR) [13]): 100% | Pre-emergence efficacy against Amaranthus retroflexus (AMARE) [14]: 100%

Cc1cc(C)c(-c2cc(C(F)F)no2)c(Oc2ncc(Br)cn2)n1 [Example I-41]
Post-emergence efficacy against Polygonum convolvulus (POLCO) [1]: 80% | Post-emergence efficacy against Veronica persica (VERPE) (Veronica persica (VERPE) [3]): 90% | Post-emergence efficacy against Amaranthus retroflexus (AMARE) [5]: 90% | Post-emergence efficacy against Lolium rigidum (LOLRI) (Lolium rigidum (LOLRI)): 90% | Post-emergence efficacy against Abutilon theophrasti (ABUTH) [15]: 90% | Post-emergence action against Stellaria media (STEME) (Stellaria media (STEME) [16]): 100% | Post-emergence efficacy against Poa annua (POAAN) (Poa annua (POAAN) [17]): 100% | Post-emergence efficacy against Setaria viridis (SETVI) (Setaria viridis (SETVI) [18]): 90% | Post-emergence efficacy against Veronica persica (VERPE) (Veronica persica (VERPE) [19]): 100% | Post-emergence efficacy against Amaranthus retroflexus (AMARE) [20]: 100% | Post-emergence efficacy against Bassia scoparia (KCHSC) (Bassia scoparia (KCHSC) [21]): 100% | Pre-emergence efficacy against Matricaria inodora (MATIN) [22]: 100% | Pre-emergence efficacy against Abutilon theophrasti (ABUTH) [23]: 100% | Pre-emergence efficacy against Alopecurus myosuroides (ALOMY) [24]: 90% | Pre-emergence efficacy against Stellaria media (STEME) (Stellaria media (STEME) [25]): 100% | Pre-emergence efficacy against Poa annua (POAAN) (Poa annua (POAAN) [26]): 100% | Pre-emergence efficacy against Setaria viridis (SETVI) (Setaria viridis (SETVI) [27]): 100% | Pre-emergence efficacy against Echinochloa crus-galli (ECHCG) [28]: 90% | Pre-emergence efficacy against Veronica persica (VERPE) (Veronica persica (VERPE) [29]): 100% | Pre-emergence efficacy against Amaranthus retroflexus (AMARE) [30]: 100% | Pre-emergence efficacy against Bassia scoparia (KCHSC) (Bassia scoparia (KCHSC) [31]): 100% | Pre-emergence efficacy against Matricaria inodora (MATIN) [6]: 80% | Pre-emergence efficacy against Polygonum convolvulus (POLCO) [7]: 90% | Pre-emergence efficacy against Abutilon theophrasti (ABUTH) [8]: 80% | Pre-emergence efficacy against Alopecurus myosuroides (ALOMY) [9]: 80% | Pre-emergence efficacy against Setaria viridis (SETVI) (Setaria viridis (SETVI) [10]): 80% | Pre-emergence efficacy against Veronica persica (VERPE) (Veronica persica (VERPE) [12]): 80% | Pre-emergence efficacy against Viola tricolor (VIOTR) (Viola tricolor (VIOTR) [13]): 80% | Pre-emergence efficacy against Amaranthus retroflexus (AMARE) [14]: 100%
